T1: NAF-1 (Homo sapiens, UniProt Q8N5K1)
T1 construct: gene CISD2; soluble cytosolic part, residues 57-135; pET-28a+, E. coli BL21-RIL, Ni-agarose and size exclusion; [2Fe-2S] holo form; homodimer
T1 sequence (Q8N5K1 57-135): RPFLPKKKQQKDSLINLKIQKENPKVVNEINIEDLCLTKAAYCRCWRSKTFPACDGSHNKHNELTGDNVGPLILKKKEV

T2: mNT (mitoNEET) (Homo sapiens, UniProt Q9NZ45)
T2 construct: gene CISD1; soluble cytosolic part, residues 33-108; pET-28a+, E. coli BL21-RIL, Ni-agarose and size exclusion; [2Fe-2S] holo form; homodimer
T2 sequence (Q9NZ45 33-108): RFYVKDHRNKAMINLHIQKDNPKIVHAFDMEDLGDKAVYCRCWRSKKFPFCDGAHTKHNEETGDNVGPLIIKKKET

B1: mitoNEET soluble part (residue 33-108) (domain or fragment, human, UniProt Q9NZ45 33-108, looked up)
chain: T2 sequence (Q9NZ45 33-108)
notes: mitoNEET (mNT), human NEET protein, soluble part, residues 33-108; Each monomer carries a [2Fe-2S] cluster; Crystallised with the small molecule M1; also called mNT; source: Escherichia coli BL21-RIL, purified (Ni-agarose, size exclusion chromatography)
B2: NAF-1 soluble part (residue 57-135) (domain or fragment, human, UniProt Q8N5K1 57-135, looked up)
chain: T1 sequence (Q8N5K1 57-135)
notes: NAF-1, human NEET protein encoded by CISD2, soluble part, residues 57-135; Each monomer carries a [2Fe-2S] cluster; Crystallised with the small molecule M1; source: Escherichia coli BL21-RIL, purified (Ni-agarose, size exclusion chromatography)

Columns and labels:
NAF-1 = molecular target: T1, NAF-1; test: isothermal titration calorimetry, one-site model; type: binding
mNT (mitoNEET) = molecular target: T2, mNT (mitoNEET); test: isothermal titration calorimetry, one-site model; type: binding
[1] = molecular target: the molecule itself; test: crystal structure; co-crystallised with the small molecule M1 (3.3 mM, 5% DMSO), sitting drop, 32% PEG-3000, 100 mM Tris-HCl pH 8.0, 100 mM NaCl, 20 °C; two molecules (mNT) or two dimers (NAF-1) in the asymmetric unit

Row | Molecule | Kd (NAF-1) [µM] | Kd (mNT (mitoNEET)) [µM] | binding result [1]
1 | O=C(Nc1scc(C2CCc3ccccc3C2)c1C(=O)O)c1ccccc1 (racemic) [M1] | 7.2 ± 0.99 | 5.93 ± 0.53 | –
2 | B1 | – | – | binds
3 | B2 | – | – | binds
